Patent publication US20230069963A1, “PYRAZOLO[1,5-A]PYRIMIDINE MACROCYCLIC COMPOUND” (priority 2018, published 2023)
Read-outs that look alike come from different tables or passages of the source.

How the values were obtained:
[1] = tested on: F protein D486N mutant strain of RSV A2 strain; type: cell-based, respiratory syncytial virus (RSV); conditions: Hep2 cells, incubated for 4 days, CPE detected with XTT assay (absorbance 450 nm); read-out: EC50 (nmol/L) against F protein D486N mutant strain of RSV A2 strain
RSV ATCC VR-1540 (A2) = test: microbe, parasite or virus in culture; type: cell-based; conditions: Hep2 cells, incubated for 4 days, CPE detected with XTT assay (absorbance 450 nm), read-out: EC50 (nmol/L) against RSV A2 strain
[2] = human respiratory syncytial virus, HEp-2, 96 h

| Molecule | EC50 [1] [nmol/L] | EC50 (RSV ATCC VR-1540 (A2); [2]) [nmol/L] | EC50 (RSV ATCC VR-1540 (A2)) [nmol/L] |
| --- | --- | --- | --- |
| CC1CCNC(=O)COc2ccc(Cl)cc2C(=O)N2CCCCC2c2cc3nc(C4CC4)cc1n3n2 (single isomer, unassigned) [Example 124a] | 7.23 | – | – |
| Cc1ccc2c(c1)C(=O)N1CCCCC1c1cc3nc(C4CC4)cc(n3n1)C(C)CCNC(=O)CO2 (single isomer, unassigned) [Example 126a] | 2.05 | – | – |
| CN1CCNC(C(F)(F)F)COc2ccc(Cl)cc2C(=O)N2CCCCC2c2cc3nc(N4CC(N)C4)cc1n3n2 (single isomer, unassigned) [Example 339] | 4.11 | – | – |
| CN1CCNC(=O)COc2ccc(F)cc2C(=O)N2CCCCC2c2cc3nc(N4CCC(N)C4)cc1n3n2 [Example 1, (18aS)-13-[(3S)-3-aminopyrrolidin-1-yl]-2-fluoro-11-methyl-8,9,10,11,19,20,21,22-octahydro-18aH,24H-18,15-(metheno)pyrido[2,1-l]pyrimido[6,1-h][1,4,7,9,10,13]benzoxapentaazacyclohexadecine-7,24(6H)-dione] | 3.17 | 2.07 | – |
| CN1CCNC(=O)COc2ccc(F)cc2C(=O)N2CCCC[C@H]2c2cc3nc(N4CCC4)cc1n3n2 [Example 2, (18aS)-13-(azetidin-1-yl)-2-fluoro-1-methyl-8,9,10,11,19,20,21,22-octahydro-18aH,24H-18,15-(metheno)pyrido[2,1-l]pyrimido[6,1-h][1,4,7,9,10,13]benzoxapentaazacyclohexadecine-7,24(6H)-dione] | 3.06 | 0.8 | – |
| CN1CC(=O)NCCOc2ccc(F)cc2C(=O)N2CCCC[C@H]2c2cc3nc(N4CC(N)C4)cc1n3n2 [Example 37, (18aS)-13-(3-aminoazetidin-1-yl)-2-fluoro-1-methyl-7,8,10,11,19,20,21,22-octahydro-8aH,24H-18,15-(metheno)pyrido[2,1-l]pyrimido[6,1-h][1,4,7,9,10,13]benzoxapentaazacyclohexadecine-9,24(6H)-dione] | 10.1 | – | – |
| CN1CCNC(=O)COc2ccc(Cl)cc2C(=O)N2CCCC[C@H]2c2cc3nc(N4CC(O)C4)cc1n3n2 [Example 39] | 0.867 | – | – |
| [2H]C([2H])([2H])c1ccc2c(c1)C(=O)N1CCCC[C@H]1c1cc3nc(N4CC(O)C4)cc(n3n1)N(C)CCNC(=O)CO2 [Example 53, (18aS)-13-(3-hydroxyazetidin-1-yl)-1-methyl-2-trideuteriomethyl-8,9,10,11,19,20,21,22-octahydro-18aH,24H-18,15-(metheno)pyrido[2,1-l]pyrimido[6,1-h][1,4,7,9,10,13]benzoxapentaazacyclohexadecine-7,24(6H)-dione] | 1.05 | – | – |
| CN1CCCNC(=O)COc2ccc(F)cc2C(=O)N2CCCC[C@H]2c2cc3nc(N4CC(N)C4)cc1n3n2 [Example 57, (19aS)-14-(3-aminoazetidin-1-yl)-2-fluoro-12-methyl-9,10,11,12,20,21,22,23-octahydro-6H, 19aH,25H-19,16-(metheno)pyrido[2,1-m]pyrimido[6,1-i][1,4,8,10,11,14]benzoxapentaazacycloheptadecine-7,25(8H)-dione] | 12.6 | 2.11 | – |
| CN1CCNC(=O)COc2ccc(F)cc2C(=O)N2CCCC[C@H]2c2cc3nc(C4CC4)cc1n3n2 [Example 90, (18aS)-13-cyclopropyl-2-fluoro-11-methyl-8,9,10,11,19,20,21,22-octahydro-18aH,24H-18,15-(metheno)pyrido[2,1-l]pyrimido[6,1-h][1,4,7,9,10,13]benzoxapentaazacyclohexadecine-7,24(6H)-dione] | 2.8 | – | – |
| [2H]C([2H])([2H])c1ccc2c(c1)C(=O)N1CCCC[C@H]1c1cc3nc(C4CC4)cc(n3n1)N(C)CCNC(=O)CO2 [Example 100, (18aS)-13-cyclopropyl-11-methyl-2-trideuteriomethyl-8,9,10,11,19,20,21,22-octahydro-18aH,24H-18,15-(metheno)pyrido[2,1-l]pyrimido[6,1-h][1,4,7,9,10,13]benzoxapentaazacyclohexadecine-7,24(6H)-dione] | 0.678 | 0.328 | – |
| CN1CCNC(=O)COc2ccc(Cl)cc2C(=O)N2CCCCC2c2cc3nc(C4CC(O)C4)cc1n3n2 [Example 112, (18aS)-2-chloro-13-(trans-3-hydroxycyclobutyl)-11-methyl-8,9,10,11,19,20,21,22-octahydro-18aH,24H-18,15-(metheno)pyrido[2,1-l]pyrimido[6,1-h][1,4,7,9,10,13]benzoxapentaazacyclohexadecine-7,24(6H)-dione] | 0.704 | – | – |
| [2H]C([2H])([2H])N1CCNC(=O)COc2ccc(Cl)cc2C(=O)N2CCCCC2c2cc3nc(C4CC(O)C4)cc1n3n2 [Example 115, (18aS)-2-chloro-13-(trans-3-hydroxycyclobutyl)-11-trideuteriomethyl-8,9,10,11,19,20,21,22-octahydro-18aH,24H-18,15-(metheno)pyrido[2,1-l]pyrimido[6,1-h][1,4,7,9,10,13]benzoxapentaazacyclohexadecine-7,24(6H)-dione] | 0.777 | 0.344 | – |
| Cc1ccc2c(c1)C(=O)N1CCCC[C@H]1c1cc3nc(N4CC(O)C4)cc(n3n1)N(C)CCNCCO2 [Example 171, (18aS)-13-(3-hydroxyazetidin-1-yl)-2,11-dimethyl-6,7,8,9,10,11,19,20,21,22-decahydro-18aH,24H-18,15-(metheno)pyrido[2,1-l]pyrimido[6,1-h][1,4,7,9,10,13]benzoxapentaazacyclohexadecin-24-one] | 4.19 | – | – |
| CN1CCOCCOc2ccc(Cl)cc2C(=O)N2CCCC[C@H]2c2cc3nc(N4CC(N)C4)cc1n3n2 [Example 298, (18aS)-13-(3-aminoazetidin-1-yl)-2-chloro-11-methyl-6,7,10,11,19,20,21,22-octahydro-9H,18aH,24H-18,15-(metheno)pyrido[2,1-l]pyrimido[6,1-h][1,4,7,9,10,13]benzodioxatetraazacyclohexadecin-24-one] | 3.13 | – | – |
| CN1CCn2ccnc2COc2ccc(Cl)cc2C(=O)N2CCCC[C@H]2c2cc3nc(N4CC(N)C4)cc1n3n2 [Example 335, (20aS)-15-(3-amninoazetidin-1-yl)-2-chloro-13-methyl-12,13,21,22,23,24-hexahydro-6H,11H, 20aH,26H-20,17-(metheno)imidazo[2,1-c]pyrido[2,1-l]pyrimido[6,1-h][1,4,7,9,10,13]benzoxapentaazacyclohexadecin-26-one] | 10.6 | – | – |
| Cc1ccc2c(c1)C(=O)N1CCCCC1c1cc3nc(N4CC(O)C4)cc(n3n1)N(C)CC(C(F)(F)F)NCCO2 [Example 348, (18aS)-13-(3-hydroxyazetidin-1-yl)-2,11-dimethyl-9-(trifluoromethyl)-6,7,8,9,10,11,19,20,21,22-decahydro-18aH,24H-18,15-(metheno)pyrido[2,1-l]pyrimido[6,1-h][1,4,7,9,10,13]benzoxapentaazacyclohexadecin-24-one] | 8.2 | – | – |
| CN1CCCC(=O)NCC(C)(c2ccc(F)cc2)C(=O)N2CCCC[C@H]2c2cc3nc(N4CC(N)C4)cc1n3n2 (stereo partly drawn) [Example 371, (18aS)-3-(3-aminoazetidin-1-yl)-12-(4-fluorophenyl)-5,12-dimethyl-7,8,11,12,16,17,18,18a-octahydro-5H,15H-19,1-(metheno)pyrido[1,2-m]pyrimido[1,6-b][1,2,4,9,13]pentaazacyclopentadecine-9,13(6H,10H)-dione] | – | 12.8 | – |
| CN1CCCCS(=O)(=O)NC(C)(c2ccc(F)cc2)C(=O)N2CCCC[C@H]2c2cc3nc(N4CC(O)C4)cc1n3n2 (stereo partly drawn) [Example 377, (18aS)-12-(4-fluorophenyl)-3-(3-hydroxyazetidin-1-yl)-5,12-dimethyl-6,7,8,9,11,12,16,17,18,18a-decahydro-5H,15H-19,1-(metheno)-10λ^6-pyrido[1,2-e]pyrimido[1,6-i][1,2,5,8,9,11]thiapentaazacyclopentadecine-10,10,13-trione] | – | 22.7 | – |
| CN1CCCCOCC(C)(c2cccnc2)C(=O)N2CCCCC2c2cc3nc(N4CC(N)C4)cc1n3n2 [Example 380, (18aS)-3-(3-aminoazetidin-1-yl)-5,12-dimethyl-12-(pyridin-3-yl)-6,7,8,9,11,12,16,17,18,18a-decahydro-5H,13H,15H-19,1-(metheno)pyrido[,2-e]pyrimido[1,6-i][1,5,8,9,11]oxatetraazacyclopentadecin-13-one] | – | 8.77 | – |
| (18aS)-2-fluoro-13-(cis-3-hydroxycyclobutyl)-11-methyl-8,9,10,11,19,20,21,22-octahydro-l 8aH,24H-18,15-(metheno)pyrido[2,1-l]pyrimido[6,1-h][1,4,7,9,10,13]benzoxapentaazacyclohexadecine-7,24(6H)-dione [Example 109] | – | – | 1.14 |
| (18aS)-13-(azetidin-1-yl)-2-fluoro-7-(hydroxymethyl)-11-methyl-6,7,8,9,10,11,19,20,21,22-decahydro-18aH,24H-18,15-(metheno)pyrido[2,1-l]pyrimido[6,1-h][1,4,7,9,10,13]benzoxapentaazacyclohexadecin-24-one [Example 146] | – | – | 20.8 |
| (18aS)-13-(trans-3-hydroxycyclobutyl)-11-methyl-2-trideuteriomethyl-8,9,10,11,19,20,21,22-octahydro-18aH,24H-18,15-(metheno)pyrido[2,1-l]pyrimido[6,1-h][1,4,7,9,10,13]benzoxapentaazacyclohexadecine-7,24(6H)-dione [Example 118t] | 0.72 | – | – |
| (23aS)-18-(azetidin-1-yl)-8-fluoro-16-methyl-1,3,4,11,12,13,14,15,16,23a-decahydro-2H,6H-23,20-(metheno)pyrido[1,2-b]pyrimido[1,6-f][2,5,6,8,11]benzopentaazacyclopentadecin-6-one [Example 148] | – | – | 28.9 |
